Measured values as given in ChEMBL document CHEMBL1201862, “PubChem BioAssay data set” (2004).
“And” between values parts separate entries of the source, which are not always exact repeats. Identical values can stand only once.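 Growth conditions: 96-well plates. Treatment: test compound, 48 hours, 5 concentrations. Analysis: linear interpolation between bracketing concentrations; unreached endpoints set to highest concentration. GI50 is the concentration that inhibits growth by half.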 The source made the active and inactive calls. No stated cut-off is given here; in the data, active = GI50 up to about 1.1 µM and inactive = higher.

Experiments:
Assay in all cases: DTP human tumour cell line panel, 48 h
[1] = test system: HL-60
[2] = test system: IGROV-1
[3] = test system: UO-31
[4] = test system: NCI-H522
[5] = test system: Malme-3M
[6] = test system: SK-MEL-2
[7] = test system: SK-MEL-5
[8] = test system: OVCAR-5
[9] = test system: HCT-116
[10] = test system: HCT-15
[11] = test system: NCI-H226
[12] = test system: TK-10
[13] = test system: SK-OV-3
[14] = test system: SR
[15] = test system: SF-268
[16] = test system: SNB-19
[17] = test system: RXF 393
[18] = test system: CAKI-1
[19] = test system: SNB-75

| SMILES | GI50 [1] | GI50 [2] | GI50 [3] | GI50 [4] | GI50 [5] | GI50 [6] | GI50 [7] | GI50 [8] | GI50 [9] | GI50 [10] [µM] | GI50 [11] | GI50 [12] | GI50 [13] | GI50 [14] | GI50 [15] | GI50 [16] | GI50 [17] | GI50 [18] | GI50 [19] |
| --- | --- | --- | --- | --- | --- | --- | --- | --- | --- | --- | --- | --- | --- | --- | --- | --- | --- | --- | --- |
| CC(=O)NNc1nc(C)c(C(=O)NNC(=O)C(=O)Nc2ccc(Cl)cc2)s1 | > 100 µM (inactive) | > 100 µM (inactive) | > 100 µM (inactive) | 31.8 µM (inactive) | > 100 µM (inactive) | > 100 µM (inactive) | > 100 µM (inactive) | > 100 µM (inactive) | > 100 µM (inactive) | > 100 | > 100 µM (inactive) | > 100 µM (inactive) | > 100 µM (inactive) | 68.5 µM (inactive) | 49.7 µM (inactive) | > 100 µM (inactive) |  |  |  |
| CN(NC1OC(CO)C(O)C(O)C1O)c1ccccc1 (centres undefined) | > 100 µM (inactive) | > 100 µM (inactive) |  | 94.4 µM (inactive) | > 100 µM (inactive) |  | > 100 µM (inactive) | > 100 µM (inactive) | > 100 µM (inactive) | > 100 | > 100 µM (inactive) | > 100 µM (inactive) |  | > 100 µM (inactive) | > 100 µM (inactive) | > 100 µM (inactive) | > 100 µM (inactive) | > 100 µM (inactive) |  |
| Cc1nc(N)nn1C1OCC(O)C(O)C1O (centres undefined) | > 100 µM (inactive) | > 100 µM (inactive) | > 100 µM (inactive) | > 100 µM (inactive) | > 100 µM (inactive) | > 100 µM (inactive) | > 100 µM (inactive) |  | > 100 µM (inactive) | > 100 |  | > 100 µM (inactive) | > 100 µM (inactive) |  | > 100 µM (inactive) | > 100 µM (inactive) | > 100 µM (inactive) | > 100 µM (inactive) | 93.5 µM (inactive) |
| COCC1N=C(c2ccc(OC)c(OCc3ccccc3)c2OC)O[C@H]1c1ccccc1 (some centres undefined) | 15.2 µM (inactive) | 32.4 µM (inactive) | 4.89 µM (inactive) | 20.8 µM (inactive) |  | 23.4 µM (inactive) | 11.9 µM (inactive) | 25 µM (inactive) | 11.9 µM (inactive) | 17.5 | 29 µM (inactive) | 35.2 µM (inactive) | 46.6 µM (inactive) |  | 25.8 µM (inactive) | 29.9 µM (inactive) | 29.3 µM (inactive) |  | 25.3 µM (inactive) |
| O=C1c2cc3c(cc2[C@@H]2C(O)[C@H]4O[C@H]4C4CCN1C42)OCO3 (some centres undefined) | > 37.5 µM (inactive) | > 37.5 µM (inactive) | > 37.5 µM (inactive) | > 37.5 µM (inactive) | > 37.5 µM (inactive) | > 37.5 µM (inactive) |  | > 37.5 µM (inactive) | > 37.5 µM (inactive) | > 37.5 | > 37.5 µM (inactive) | > 37.5 µM (inactive) | > 37.5 µM (inactive) | > 37.5 µM (inactive) | > 37.5 µM (inactive) | > 37.5 µM (inactive) |  | 25.3 µM (inactive) |  |
| CCCCCCCC/C=C\CCCCCCCC(=O)O [OLEIC ACID] | 126 µM (inactive) | 178 µM (inactive) | 158 µM (inactive) | 101 µM (inactive) | > 500 µM (inactive) | 206 µM (inactive) | > 212 µM (inactive) | > 500 µM (inactive) | 114 µM (inactive) | 177 | 9.48 µM (inactive) |  | > 500 µM (inactive) |  | 101 µM (inactive) | 143 µM (inactive) | 92.7 µM (inactive) | 118 µM (inactive) | 24.5 µM (inactive) |
| O=C1C(=O)N(c2cc(Cl)ccc2Cl)C(=O)C(=O)C1c1nc2ccccc2o1 | 39.1 µM (inactive) | > 100 µM (inactive) | > 70.8 µM (inactive) | 90.6 µM (inactive) | > 100 µM (inactive) | > 100 µM (inactive) | > 100 µM (inactive) | > 100 µM (inactive) | > 100 µM (inactive) | > 100 |  | > 100 µM (inactive) | > 100 µM (inactive) |  | > 100 µM (inactive) | > 100 µM (inactive) | > 100 µM (inactive) | > 100 µM (inactive) | > 67.6 µM (inactive) |
| COCCOCCOCCOc1cccc2c1C(=O)c1cccc(OCCOCCOCCOC)c1C2=O | > 100 µM (inactive) | > 100 µM (inactive) |  |  |  |  | 81.5 µM (inactive) |  | > 100 µM (inactive) | > 100 |  | > 100 µM (inactive) | > 100 µM (inactive) |  |  | > 100 µM (inactive) | 92.9 µM (inactive) | > 100 µM (inactive) | > 100 µM (inactive) |
| CN(C)CC(CC1=C(CC(CN(C)C)N(C)C)CCC1)N(C)C (centres undefined) | > 100 µM (inactive) | > 100 µM (inactive) | > 100 µM (inactive) | > 100 µM (inactive) | > 100 µM (inactive) | > 100 µM (inactive) | > 100 µM (inactive) | > 100 µM (inactive) | > 100 µM (inactive) | > 100 | > 100 µM (inactive) |  | > 100 µM (inactive) |  | > 100 µM (inactive) | > 100 µM (inactive) | > 100 µM (inactive) | > 100 µM (inactive) | > 100 µM (inactive) |
| CC(=O)c1ccc2c(c1)c1c(C)c3c[n+](C)ccc3c(C)c1n2C | 8.75 µM (inactive) | 16.5 µM (inactive) | 3.36 µM (inactive) | 13.7 µM (inactive) | 10.4 µM (inactive) | 7.14 µM (inactive) | 4.73 µM (inactive) | 28.9 µM (inactive) | 2.29 µM (inactive) | 17.6 | 2.82 µM (inactive) |  | 16.1 µM (inactive) |  | 0.469 µM (active) | 1.07 µM (active) | 11.4 µM (inactive) | 6.92 µM (inactive) | 7.48 µM (inactive) |
| C1=CC(=NN=P(c2ccccc2)(c2ccccc2)c2ccccc2)C=C1 | 98.2 µM (inactive) | > 100 µM (inactive) | > 100 µM (inactive) | 88.5 µM (inactive) | > 100 µM (inactive) | > 100 µM (inactive) | > 100 µM (inactive) | > 100 µM (inactive) |  | > 100 |  | > 100 µM (inactive) | > 100 µM (inactive) |  | > 100 µM (inactive) | > 100 µM (inactive) | > 100 µM (inactive) | > 100 µM (inactive) | > 100 µM (inactive) |
| CN(C)/C(=N\C#N)N(Cc1ccccc1)Cc1ccccc1 | 44.3 µM (inactive) | > 100 µM (inactive) | 80.5 µM (inactive) | 24.9 µM (inactive) | > 100 µM (inactive) | > 100 µM (inactive) | > 100 µM (inactive) | > 100 µM (inactive) | 53.5 µM (inactive) | 16.6 | > 100 µM (inactive) | > 100 µM (inactive) | > 100 µM (inactive) |  | 98.2 µM (inactive) | > 100 µM (inactive) | 42.6 µM (inactive) | > 100 µM (inactive) | > 100 µM (inactive) |
| CCCCCCCCCCSCC(CO)NC(=O)/C=C/c1c(C)[nH]c(=O)[nH]c1=O (centres undefined) | 1.82 µM (inactive) and 1.42 µM (inactive) | 2.43 µM (inactive) and 2.48 µM (inactive) | 10.5 µM (inactive) and 6.84 µM (inactive) | 243 nM (active) and 393 nM (active) | 813 nM (active) and 703 nM (active) | 1.25 µM (inactive) and 804 nM (active) | 1.16 µM (inactive) and 1.36 µM (inactive) | > 21.2 µM (inactive) and > 27.5 µM (inactive) | 1.26 µM (inactive) and 1.29 µM (inactive) |  |  |  |  |  | 684 nM (active) and 723 nM (active) | 881 nM (active) and 925 nM (active) | 1.36 µM (inactive) and 2.69 µM (inactive) |  | 1.39 µM (inactive) and 1.32 µM (inactive) |
| C/C(=C\c1ccccc1)C(O)C(=O)c1nc2ccc(Cl)cc2nc1O (centres undefined) | 27 µM (inactive) | > 100 µM (inactive) | > 100 µM (inactive) | 52 µM (inactive) | > 100 µM (inactive) | > 100 µM (inactive) | > 100 µM (inactive) | > 100 µM (inactive) | > 100 µM (inactive) | > 100 | > 100 µM (inactive) | > 100 µM (inactive) | > 100 µM (inactive) | 25.1 µM (inactive) | > 100 µM (inactive) | > 100 µM (inactive) |  | > 100 µM (inactive) |  |
| CCCn1cc2c(SC)nc(SC)nc2n1 | > 100 µM (inactive) | > 100 µM (inactive) | > 100 µM (inactive) |  | > 100 µM (inactive) | > 100 µM (inactive) | > 100 µM (inactive) | > 100 µM (inactive) | > 100 µM (inactive) | > 100 | 32.2 µM (inactive) | > 100 µM (inactive) |  | > 100 µM (inactive) | > 100 µM (inactive) | > 100 µM (inactive) | > 100 µM (inactive) | > 100 µM (inactive) | > 100 µM (inactive) |
| N=c1oc2cc(O)c(O)cc2cc1C(N)=O | > 10 µM (inactive) | > 100 µM (inactive) | > 100 µM (inactive) | 45.1 µM (inactive) | > 100 µM (inactive) | > 100 µM (inactive) | > 100 µM (inactive) | > 100 µM (inactive) | > 100 µM (inactive) | > 100 | > 100 µM (inactive) | > 100 µM (inactive) | > 100 µM (inactive) |  | 81.3 µM (inactive) | > 100 µM (inactive) | > 100 µM (inactive) | > 100 µM (inactive) | 25 µM (inactive) |
| CN(C)C(=O)/C=C/c1c[nH]c(=O)[nH]c1=O | 296 µM (inactive) | > 500 µM (inactive) | > 500 µM (inactive) | > 500 µM (inactive) | > 500 µM (inactive) | > 500 µM (inactive) | > 500 µM (inactive) | > 500 µM (inactive) | > 500 µM (inactive) | > 500 | > 500 µM (inactive) |  | > 254 µM (inactive) |  | > 500 µM (inactive) | > 500 µM (inactive) | > 500 µM (inactive) | > 500 µM (inactive) | > 500 µM (inactive) |
